The values below come from ChEMBL document CHEMBL5647694, “Novel orally bioavailable EZH1/2 dual inhibitors with greater antitumor efficacy than an EZH2 selective inhibitor” (Cancer Sci, 2017).

The target in data set [1] is RAC-beta serine/threonine-protein kinase (Homo sapiens) (UniProt P31751). The data set can be described thus: Inhibition of N-terminal GST-tagged human AKT2 catalytic domain (120 to 481 residues) co-expressed with His-tagged PDK1 (1 to 556 residues) in baculovirus-infected Sf21 cells using Crosstide as substrate at 1 uM in presence of ATP by Mobility shift assay.
RAC-beta serine/threonine-protein kinase (Homo sapiens), sequence (P31751 whole entry, the tested form may be a part): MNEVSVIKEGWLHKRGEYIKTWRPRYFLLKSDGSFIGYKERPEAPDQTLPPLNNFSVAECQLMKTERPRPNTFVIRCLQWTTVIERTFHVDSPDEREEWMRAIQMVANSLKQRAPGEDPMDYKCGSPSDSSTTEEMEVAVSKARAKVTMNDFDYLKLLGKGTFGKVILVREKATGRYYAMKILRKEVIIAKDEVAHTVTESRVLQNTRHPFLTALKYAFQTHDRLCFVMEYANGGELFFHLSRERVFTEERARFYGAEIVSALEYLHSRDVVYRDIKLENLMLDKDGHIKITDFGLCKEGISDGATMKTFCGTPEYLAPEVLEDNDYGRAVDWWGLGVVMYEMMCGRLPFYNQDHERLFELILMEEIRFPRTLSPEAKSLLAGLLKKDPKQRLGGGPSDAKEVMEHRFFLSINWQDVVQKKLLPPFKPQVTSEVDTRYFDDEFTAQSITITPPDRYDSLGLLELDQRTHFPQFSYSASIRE
Data set [2] in a line: Toxicity in Crl:CD Sprague-Dawley rat assessed as white blood cell count in blood at 100 mg/kg, po administered daily for 14 days (reference value: 9.55+/-1.72 10^3/uL). The data set is classed as organism-based. The conditions noted are these: in vivo, 336 h, time 14 day.
Data set [3] in a line: Toxicity in Crl:CD Sprague-Dawley rat assessed as urea nitrogen level in blood at 100 mg/kg, po administered daily for 14 days (reference value: 16.7+/-2.39 mg/dL). The data set is classed as organism-based. The conditions noted are these: in vivo, 336 h, time 14 day.
Data set [4] can be described thus: Toxicity in Crl:CD Sprague-Dawley rat assessed as decrease of lymphocytes in thymus cortex at 100 mg/kg, po administered daily for 14 days by hematoxylin and eosin staining based analysis. Format: organism-based. The conditions noted are these: in vivo, 336 h, time 14 day.
Data set [5] is described as follows: Toxicity in Crl:CD Sprague-Dawley rat assessed as atrophy of spleen at 100 mg/kg, po administered daily for 14 days by hematoxylin and eosin staining based analysis. As to conditions: in vivo, 336 h, time 14 day. Format: organism-based.
The nature of data set [6]: Toxicity in Crl:CD Sprague-Dawley rat assessed as hypertrophy of zona fasciculata/reticularis cells in adrenal at 100 mg/kg, po administered daily for 14 days by hematoxylin and eosin staining based analysis. Format: organism-based. The conditions noted are these: in vivo, 336 h, time 14 day.
The test system of data set [7] is KARPAS-422. The data set can be described thus: Antitumor activity against human KARPAS-422 cells xenografted in CB17/Icr-Prkdcscid/CrlCrlj mouse assessed as inhibition of tumor growth at 50 mg/kg, po BID for 14 days and measured after cessation of drug treatment. As to conditions: time 14.0 day. The data set is classed as functional, organism-based. (In general: A xenograft is tissue or cells of one species grown in another, often human tumour cells in immunodeficient mice.)

The test system of data set [8] is BT-474. Briefly: Antitumor activity against human BT-474 cells assessed as cell growth inhibition treated for 10 to 15 days. The data set is classed as functional. The conditions noted are these: time 10-15 day.
Data set [9] deals with Histone-lysine N-methyltransferase EHMT2 (Homo sapiens, UniProt Q96KQ7). The data set can be described thus: Inhibition of human G9a using Histone H3 (1-21 residues) and [3H]SAM as substrate incubated for 30 mins to 1 hr by HotSpot kinase assay.
Histone-lysine N-methyltransferase EHMT2, sequence (Q96KQ7 whole entry, the tested form may be a part): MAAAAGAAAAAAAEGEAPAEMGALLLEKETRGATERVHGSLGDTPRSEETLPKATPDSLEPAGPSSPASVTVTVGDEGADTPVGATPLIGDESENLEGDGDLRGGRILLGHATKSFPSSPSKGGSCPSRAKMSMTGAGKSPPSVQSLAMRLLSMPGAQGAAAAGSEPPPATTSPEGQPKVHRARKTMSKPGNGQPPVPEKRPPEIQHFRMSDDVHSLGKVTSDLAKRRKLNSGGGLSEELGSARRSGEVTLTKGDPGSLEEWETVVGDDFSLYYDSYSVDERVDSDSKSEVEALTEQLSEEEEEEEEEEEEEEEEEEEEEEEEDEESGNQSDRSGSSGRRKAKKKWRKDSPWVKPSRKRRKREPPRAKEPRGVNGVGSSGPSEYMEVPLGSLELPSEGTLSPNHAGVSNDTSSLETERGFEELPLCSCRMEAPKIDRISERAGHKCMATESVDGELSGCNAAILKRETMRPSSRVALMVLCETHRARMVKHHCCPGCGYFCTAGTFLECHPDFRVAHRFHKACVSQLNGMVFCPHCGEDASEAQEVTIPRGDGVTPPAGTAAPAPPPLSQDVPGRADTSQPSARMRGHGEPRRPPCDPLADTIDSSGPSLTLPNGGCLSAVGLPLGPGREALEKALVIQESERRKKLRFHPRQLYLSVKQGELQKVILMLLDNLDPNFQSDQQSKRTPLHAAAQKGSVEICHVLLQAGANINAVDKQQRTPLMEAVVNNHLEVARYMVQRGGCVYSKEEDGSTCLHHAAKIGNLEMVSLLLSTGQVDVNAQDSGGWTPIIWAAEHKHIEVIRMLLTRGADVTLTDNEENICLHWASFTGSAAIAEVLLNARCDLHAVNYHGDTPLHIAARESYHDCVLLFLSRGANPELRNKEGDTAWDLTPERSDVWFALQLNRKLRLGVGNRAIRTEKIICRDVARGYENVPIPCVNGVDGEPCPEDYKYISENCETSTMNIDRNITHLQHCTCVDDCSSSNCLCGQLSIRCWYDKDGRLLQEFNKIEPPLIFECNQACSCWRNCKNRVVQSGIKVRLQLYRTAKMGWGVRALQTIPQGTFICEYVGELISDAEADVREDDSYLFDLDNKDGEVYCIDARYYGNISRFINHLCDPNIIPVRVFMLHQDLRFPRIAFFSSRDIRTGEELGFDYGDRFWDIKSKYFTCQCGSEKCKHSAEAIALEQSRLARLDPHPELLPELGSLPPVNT
The target of data set [10] is Histone-lysine N-methyltransferase 2A (Homo sapiens, UniProt Q03164). The data set can be described thus: Inhibition of human MLL1 using Nucleosomes and [3H]SAM as substrate incubated for 30 mins to 1 hr by HotSpot kinase assay.
Data set [11] concerns the target Histone-lysine N-methyltransferase 2C (Homo sapiens, UniProt Q8NEZ4). The data set can be described thus: Inhibition of human MLL3 using Core Histone and [3H]SAM as substrate incubated for 30 mins to 1 hr by HotSpot kinase assay.
Data set [12] has as its target Histone-lysine N-methyltransferase NSD2 (Homo sapiens, UniProt O96028). The data set can be described thus: Inhibition of human NSD2 using Nucleosomes and [3H]SAM as substrate incubated for 30 mins to 1 hr by HotSpot kinase assay.
Data set [13] addresses Histone-lysine N-methyltransferase PRDM9 (Homo sapiens, UniProt Q9NQV7). Briefly: Inhibition of human PRDM9 using Histone H3 and [3H]SAM as substrate incubated for 30 mins to 1 hr by HotSpot kinase assay.
The target of data set [14] is Protein arginine N-methyltransferase 3 (Homo sapiens, UniProt O60678). Briefly: Inhibition of human PRMT3 using Histone H4 and [3H]SAM as substrate incubated for 30 mins to 1 hr by HotSpot kinase assay.
Protein arginine N-methyltransferase 3, sequence (O60678 whole entry): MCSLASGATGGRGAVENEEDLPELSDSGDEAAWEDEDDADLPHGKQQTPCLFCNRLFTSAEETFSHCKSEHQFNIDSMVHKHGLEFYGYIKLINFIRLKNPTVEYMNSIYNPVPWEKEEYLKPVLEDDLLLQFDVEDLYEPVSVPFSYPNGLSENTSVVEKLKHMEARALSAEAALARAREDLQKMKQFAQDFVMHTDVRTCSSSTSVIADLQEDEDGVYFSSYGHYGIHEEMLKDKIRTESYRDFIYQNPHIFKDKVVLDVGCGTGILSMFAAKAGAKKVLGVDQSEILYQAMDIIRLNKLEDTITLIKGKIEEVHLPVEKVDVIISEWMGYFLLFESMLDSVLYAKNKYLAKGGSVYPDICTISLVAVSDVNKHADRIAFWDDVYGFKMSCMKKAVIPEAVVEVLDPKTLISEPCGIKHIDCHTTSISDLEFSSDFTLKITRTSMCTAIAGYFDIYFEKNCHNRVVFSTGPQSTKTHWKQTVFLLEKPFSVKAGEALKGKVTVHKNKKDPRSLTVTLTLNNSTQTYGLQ
The target of data set [15] is PRMT5/MEP50 complex (Homo sapiens, UniProt O14744+Q9BQA1). Briefly: Inhibition of human PRMT5/MEP50 using Histone H2A and [3H]SAM as substrate incubated for 30 mins to 1 hr by HotSpot kinase assay. Format: protein-complex assay.
PRMT5/MEP50 complex, sequence (O14744 whole entry): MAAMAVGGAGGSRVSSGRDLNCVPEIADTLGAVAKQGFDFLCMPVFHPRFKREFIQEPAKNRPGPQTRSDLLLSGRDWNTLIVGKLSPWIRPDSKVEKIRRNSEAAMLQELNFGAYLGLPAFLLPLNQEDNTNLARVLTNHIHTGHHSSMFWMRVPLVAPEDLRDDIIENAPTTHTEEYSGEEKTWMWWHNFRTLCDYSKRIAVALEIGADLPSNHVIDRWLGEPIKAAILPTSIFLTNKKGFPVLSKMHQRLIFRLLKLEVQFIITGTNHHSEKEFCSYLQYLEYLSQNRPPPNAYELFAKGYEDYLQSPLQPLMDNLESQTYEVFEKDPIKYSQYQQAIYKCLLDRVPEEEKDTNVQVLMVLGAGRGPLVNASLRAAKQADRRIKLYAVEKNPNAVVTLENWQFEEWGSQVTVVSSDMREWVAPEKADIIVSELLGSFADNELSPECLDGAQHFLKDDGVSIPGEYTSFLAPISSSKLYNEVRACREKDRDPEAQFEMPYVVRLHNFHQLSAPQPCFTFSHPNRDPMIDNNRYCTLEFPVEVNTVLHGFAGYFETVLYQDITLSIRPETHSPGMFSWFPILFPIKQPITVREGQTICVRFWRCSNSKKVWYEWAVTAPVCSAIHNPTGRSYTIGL
PRMT5/MEP50 complex, sequence (Q9BQA1 whole entry): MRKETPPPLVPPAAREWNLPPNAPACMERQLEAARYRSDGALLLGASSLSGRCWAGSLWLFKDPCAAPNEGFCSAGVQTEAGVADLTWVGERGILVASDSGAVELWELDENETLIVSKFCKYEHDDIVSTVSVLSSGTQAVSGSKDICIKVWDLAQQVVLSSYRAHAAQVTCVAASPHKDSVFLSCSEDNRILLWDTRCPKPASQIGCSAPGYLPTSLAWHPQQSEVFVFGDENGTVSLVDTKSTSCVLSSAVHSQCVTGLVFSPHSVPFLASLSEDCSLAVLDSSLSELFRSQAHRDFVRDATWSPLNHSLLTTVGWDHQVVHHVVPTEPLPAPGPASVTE
The target of data set [16] is Protein arginine N-methyltransferase 8 (Homo sapiens, UniProt Q9NR22). Briefly: Inhibition of human PRMT8 using Histone H4 and [3H]SAM as substrate incubated for 30 mins to 1 hr by HotSpot kinase assay.
Protein arginine N-methyltransferase 8, sequence (Q9NR22 whole entry): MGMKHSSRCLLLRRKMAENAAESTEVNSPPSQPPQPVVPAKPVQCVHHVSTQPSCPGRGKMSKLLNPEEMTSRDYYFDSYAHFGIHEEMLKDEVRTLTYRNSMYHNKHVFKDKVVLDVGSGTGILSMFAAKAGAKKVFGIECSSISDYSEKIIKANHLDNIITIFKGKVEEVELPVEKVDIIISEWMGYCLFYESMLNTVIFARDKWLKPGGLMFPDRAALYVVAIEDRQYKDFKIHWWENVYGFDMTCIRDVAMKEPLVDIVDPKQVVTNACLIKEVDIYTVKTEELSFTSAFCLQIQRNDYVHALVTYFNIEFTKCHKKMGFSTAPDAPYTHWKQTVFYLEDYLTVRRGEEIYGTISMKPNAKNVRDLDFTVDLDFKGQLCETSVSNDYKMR
Data set [17] concerns Kasumi 1. Briefly: Antitumor activity against human Kasumi 1 cells assessed as cell growth inhibition treated for 10 to 15 days. The data set is classed as functional. As to conditions: time 10-15 day.
For data set [18], the system named is K562. Briefly: Antitumor activity against human K562 cells assessed as cell growth inhibition treated for 10 to 15 days. Format: functional. As to conditions: time 10-15 day.
The subject of data set [19] is KARPAS-422. Briefly: Antitumor activity against human KARPAS-422 cells assessed as cell growth inhibition treated for 10 to 15 days. Format: functional. The conditions noted are these: time 10-15 day.
The subject of data set [20] is SR. The data set can be described thus: Antitumor activity against human SR cells assessed as cell growth inhibition treated for 10 to 15 days. Format: functional. The conditions noted are these: time 10-15 day.
Data set [21] deals with U-937. The data set can be described thus: Antitumor activity against human U-937 cells assessed as cell growth inhibition treated for 10 to 15 days. Format: functional. As to conditions: time 10-15 day.
The subject of data set [22] is H9. The data set can be described thus: Antitumor activity against human H9 cells assessed as cell growth inhibition treated for 10 to 15 days. Format: functional. As to conditions: time 10-15 day.
Data set [23] can be described thus: Antitumor activity against human MJ cells assessed as cell growth inhibition treated for 10 to 15 days. The data set is classed as functional. As to conditions: time 10-15 day.
Data set [24] has as its system ATN-1. The data set can be described thus: Antitumor activity against human ATN-1 cells assessed as cell growth inhibition treated for 10 to 15 days. Format: functional. As to conditions: time 10-15 day.
For data set [25], the system named is KMS-11. The data set can be described thus: Antitumor activity against human KMS-11 cells assessed as cell growth inhibition treated for 10 to 15 days. The conditions noted are these: time 10-15 day. Format: functional.
Data set [26] deals with SK-BR-3. The data set can be described thus: Antitumor activity against human SK-BR-3 cells assessed as cell growth inhibition treated for 10 to 15 days. Format: functional. As to conditions: time 10-15 day.
The test system of data set [27] is HCC1806. Briefly: Antitumor activity against human HCC1806 cells assessed as cell growth inhibition treated for 10 to 15 days. Format: functional. As to conditions: time 10-15 day.
Data set [28] relates to HCC1954. The data set can be described thus: Antitumor activity against human HCC1954 cells assessed as cell growth inhibition treated for 10 to 15 days. As to conditions: time 10-15 day. The data set is classed as functional.
A short description of data set [29]: Antitumor activity against human HCC202 cells assessed as cell growth inhibition treated for 10 to 15 days. The data set is classed as functional. As to conditions: time 10-15 day.
In data set [30] the test system is MDA-MB-436. The data set can be described thus: Antitumor activity against human MDA-MB-436 cells assessed as cell growth inhibition treated for 10 to 15 days. The data set is classed as functional. As to conditions: time 10-15 day.
Data set [31] has as its system LS-411N. The data set can be described thus: Antitumor activity against human LS-411N cells assessed as cell growth inhibition treated for 10 to 15 days. The data set is classed as functional. As to conditions: time 10-15 day.
Data set [32] deals with A704. Briefly: Antitumor activity against human A704 cells assessed as cell growth inhibition treated for 10 to 15 days. The data set is classed as functional. As to conditions: time 10-15 day.
Data set [33] has as its system ACHN. The data set can be described thus: Antitumor activity against human ACHN cells assessed as cell growth inhibition treated for 10 to 15 days. The conditions noted are these: time 10-15 day. The data set is classed as functional.
The test system of data set [34] is SNU-449. The data set can be described thus: Antitumor activity against human SNU-449 cells assessed as cell growth inhibition treated for 10 to 15 days. As to conditions: time 10-15 day. Format: functional.
A short description of data set [35]: Antitumor activity against human NCI-H841 cells assessed as cell growth inhibition treated for 10 to 15 days. Format: functional. The conditions noted are these: time 10-15 day.
Data set [36] has as its system NCI-H2081. Briefly: Antitumor activity against human NCI-H2081 cells assessed as cell growth inhibition treated for 10 to 15 days. Format: functional. The conditions noted are these: time 10-15 day.
The subject of data set [37] is A-427. Briefly: Antitumor activity against human A-427 cells assessed as cell growth inhibition treated for 10 to 15 days. Format: functional. The conditions noted are these: time 10-15 day.
In data set [38] the test system is SK-OV-3. Briefly: Antitumor activity against human SK-OV-3 cells assessed as cell growth inhibition treated for 10 to 15 days. Format: functional. As to conditions: time 10-15 day.
Data set [39] deals with CWR22R. The data set can be described thus: Antitumor activity against human 22Rv1 cells assessed as cell growth inhibition treated for 10 to 15 days. As to conditions: time 10-15 day. The data set is classed as functional.
The test system of data set [40] is SNU-5. Briefly: Antitumor activity against human SNU-5 cells assessed as cell growth inhibition treated for 10 to 15 days. The data set is classed as functional. As to conditions: time 10-15 day.
Data set [41] concerns SJRH30. Briefly: Antitumor activity against human SJRH30 cells assessed as cell growth inhibition treated for 10 to 15 days. The conditions noted are these: time 10-15 day. Format: functional.

Structures are written as SMILES. Calls of active or inactive are those of the source. No cut-off for these calls is given here.

Histone-lysine N-methyltransferase NSD2, sequence (O96028 whole entry): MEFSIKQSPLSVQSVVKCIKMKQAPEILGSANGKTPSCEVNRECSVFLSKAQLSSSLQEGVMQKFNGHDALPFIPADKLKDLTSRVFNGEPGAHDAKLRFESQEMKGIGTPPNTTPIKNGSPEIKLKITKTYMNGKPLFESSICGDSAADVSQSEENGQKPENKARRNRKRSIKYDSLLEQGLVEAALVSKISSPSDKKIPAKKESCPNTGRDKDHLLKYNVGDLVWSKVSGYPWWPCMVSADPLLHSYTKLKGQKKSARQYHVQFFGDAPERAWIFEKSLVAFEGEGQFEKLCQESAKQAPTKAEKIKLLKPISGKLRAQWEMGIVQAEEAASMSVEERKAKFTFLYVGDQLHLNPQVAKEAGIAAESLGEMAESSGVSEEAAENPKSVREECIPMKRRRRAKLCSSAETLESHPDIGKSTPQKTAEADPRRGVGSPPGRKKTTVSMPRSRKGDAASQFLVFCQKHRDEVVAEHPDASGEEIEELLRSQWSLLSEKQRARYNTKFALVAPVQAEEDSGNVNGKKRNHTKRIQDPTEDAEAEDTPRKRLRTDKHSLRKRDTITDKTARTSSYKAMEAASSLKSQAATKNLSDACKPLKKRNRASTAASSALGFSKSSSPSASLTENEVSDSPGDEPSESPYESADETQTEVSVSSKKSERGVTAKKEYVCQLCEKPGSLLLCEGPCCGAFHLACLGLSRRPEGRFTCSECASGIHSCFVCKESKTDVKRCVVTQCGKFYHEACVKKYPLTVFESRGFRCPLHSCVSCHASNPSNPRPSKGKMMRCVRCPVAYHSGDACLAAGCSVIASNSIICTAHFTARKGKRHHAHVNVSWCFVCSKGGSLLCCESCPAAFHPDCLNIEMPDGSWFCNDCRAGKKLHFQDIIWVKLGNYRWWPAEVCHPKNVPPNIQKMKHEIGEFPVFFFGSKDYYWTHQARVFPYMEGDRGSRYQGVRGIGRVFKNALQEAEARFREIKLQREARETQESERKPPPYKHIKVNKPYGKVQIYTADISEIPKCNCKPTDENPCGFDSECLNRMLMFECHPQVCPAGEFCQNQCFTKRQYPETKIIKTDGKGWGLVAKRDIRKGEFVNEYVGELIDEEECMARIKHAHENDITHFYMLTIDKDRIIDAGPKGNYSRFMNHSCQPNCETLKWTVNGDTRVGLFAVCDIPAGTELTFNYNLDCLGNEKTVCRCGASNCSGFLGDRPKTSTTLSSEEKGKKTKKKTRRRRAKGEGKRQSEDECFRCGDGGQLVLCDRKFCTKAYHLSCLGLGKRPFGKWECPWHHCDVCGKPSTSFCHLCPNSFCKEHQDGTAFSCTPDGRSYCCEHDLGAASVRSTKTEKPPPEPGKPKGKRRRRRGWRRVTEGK

Turning to `Cc1cc(C)c(CNC(=O)c2cc(Br)c3c(c2C)O[C@@](C)([C@H]2CC[C@H](N(C)C)CC2)O3)c(=O)[nH]1`, in [1], the inhibition was -9.5%. Besides, the Activity is 4.56 10^3 /uL in data set [2]; 16.8 mg/dL in data set [3]; “Toxic” in data set [4]; “Toxic” in data set [5]; “Toxic” in data set [6]. Further, in data set [7], the result was Active.
Take `Cc1cc(C)c(CNC(=O)c2cc(Cl)c3c(c2C)O[C@@](C)([C@H]2CC[C@H](N(C)C)CC2)O3)c(=O)[nH]1` [VALEMETOSTAT]: the GI50 is greater than 1000 nM in [8]; 70 nM in data set [17]; 788 nM in [18]; 1.56 nM in [19]; 388 nM in data set [20]; greater than 1000 nM in [21]. In addition, the GI50 is 9.58 nM in [22]; 26 nM in data set [23]; 43.8 nM in data set [24]; 10.3 nM in [25]; 6.38 nM in data set [26]; greater than 1000 nM in data set [27]. Further, the GI50 in [28], in data set [29], in [30], in [31], in data set [32] and in [33] was greater than 1000 nM throughout. Moreover, the GI50 is greater than 1000 nM in data set [34]; 134 nM in [35]; 982 nM in data set [36]; greater than 1000 nM in data set [37]; greater than 1000 nM in data set [38]; 37.7 nM in data set [39]. Also, the GI50 is 52.4 nM in data set [40] and greater than 1000 nM in [41]. The IC50 in data set [9], in [10], in data set [11], in data set [12], in data set [13] and in data set [14] was 100000 nM each time. Moreover, the IC50 in [15] and in data set [16] was 100000 nM each time.

For orientation: inhibition means the relative decrease from the control value, in per cent. As a reminder, the GI50 is the concentration giving 50% growth inhibition. As a reminder, the IC50 is the midpoint of a concentration-inhibition curve. A lower IC50 goes with greater potency in that assay.
